Assay results published in patent US20170305943A1, “COMPOUNDS FOR THE TREATMENT OF BACTERIAL INFECTIONS” (priority 2014, published 2017).
In brackets after ≈: the same amount, converted by molar mass.

These compounds were tested on Clostridium difficile (Isolate ID ATCC 9689) (assay: Bacterial Assay: Determination of Antibacterial Activity (MIC, broth microdilution or agar dilution)). Conditions: Clostridioides difficile, ATCC9689, 48 h, read-out: C. difficile MIC Activity Range.
Assay type: cell-based
Experimental: Bacterial Assay: Determination of Antibacterial Activity Compounds of the invention were tested for antimicrobial activity by susceptibility testing in liquid or on solid media. Minimum inhibitory concentrations (MICs) for compounds against each strain were determined by the broth microdilution or agar dilution method according to the guidelines of the Clinical Laboratories and Standards Institute, formerly the National Committee for Clinical Laboratory Standards (Clinical Laboratories and Standards Institute. Methods for Dilution Antimicrobial Susceptibility Tests for Bacteria That Grow Anaerobically; Approved Standard-Seventh Edition. Document M11-A7, CLSI, Wayne, Pa., 2007, Clinical Laboratories and Standards Institute). Briefly MICs were determined by visible inspection after 48 hours of growth in the presence of compounds, cultures were grown at 37° C. in anaerobic gas packs using reinforced clostridial medium supplemented with 0.1% defribrinated horse blood. The bacterial strains tested include C. difficile (Clostridium difficile (Isolate ID ATCC 9689)) (Table 2) and two drug resistant clinical isolates (Clostridium difficile (Isolate ID BI-9) and Clostridium difficile (Isolate ID 027-01) (Table 3).
MICs were determined to be within the activity ranges “A” activity≦1.01 μg/mL; “B” activity>1.0 μg/mL-4.0 μg/mL; “C” activity>4.0 μg/mL-16 μg/mL
For `NC(=O)c1c(F)ccc(OCCCCOc2ccc(F)c(F)c2)c1F` [Compound 170, 3-[4-(3,4-difluorophenoxy)butoxy]-2,6-difluorobenzamide], the MIC was 1 to 4 µg/mL (≈ 2.8 to 11.2 µM).
`CC(Oc1ccc(F)c(C(N)=O)c1F)c1nc(-c2ccc(Cl)cc2)ns1` (stereo not drawn) [Compound 30, 3-{1-[3-(4-chlorophenyl)-1,2,4-thiadiazol-5-yl]ethoxy}-2,6-difluorobenzamide] was tested, and the MIC was less than 1.01 µg/mL.
`NC(=O)c1c(F)ccc(OC(CO)c2nc(-c3ccc(OC(F)(F)F)cc3)c(Br)o2)c1F` (stereo not drawn) [Compound 52, 3-(1-{5-bromo-4-[4-(trifluoromethoxy)phenyl]-1,3-oxazol-2-yl}-2-hydroxyethoxy)-2,6-difluorobenzamide] gave an MIC of less than 1.01 µg/mL.
With `NC(=O)c1c(F)ccc(OC(CNC(=O)c2ccccc2)c2nc(-c3ccc(C(F)(F)F)cc3)c(Br)o2)c1F` (racemic) [Compound 96, 3-[2-(benzoylamino)-1-{5-bromo-4-[4-(trifluoromethyl)phenyl]-1,3-oxazol-2-yl}ethoxy]-2,6-difluorobenzamide] the MIC was less than 1.01 µg/mL.
`NC(=O)c1c(F)ccc(OCCc2nc(-c3ccc(S(F)(F)(F)(F)F)cc3)no2)c1F` [Compound 118, 2,6-difluoro-3-(2-{3-[4-(pentafluoro-lambda~6~- sulfanyl)phenyl]-1,2,4-oxadiazol-5-yl}ethoxy)benzamide] gave an MIC of less than 1.01 µg/mL.
With `CNC(=O)CCC(Oc1ccc(F)c(C(N)=O)c1F)c1nc(-c2ccc(C(F)(F)F)cc2)c(Br)o1` (stereo not drawn) [Compound 48, 3-[1-{5-bromo-4-[4-(trifluoromethyl)phenyl]-1,3-oxazol-2-yl}-4-(methylamino)-4-oxobutoxy]-2,6-difluorobenzamide] the MIC was 1 to 4 µg/mL (≈ 1.78 to 7.11 µM).
Work on `NC(=O)c1c(F)ccc(OCCCOc2ccc(Cl)cc2)c1F` [Compound 124, 3-[3-(4-chlorophenoxy)propoxy]-2,6-difluorobenzamide] yielded an MIC of 1 to 4 µg/mL (≈ 2.93 to 11.7 µM).
`Cc1cccc(CNC(=O)OCC(Oc2ccc(F)c(C(N)=O)c2F)c2nc(-c3ccc(C(F)(F)F)cc3)c(Br)o2)n1` (stereo not drawn) [Compound 77, 2-{5-bromo-4-[4-(trifluoromethyl)phenyl]-1,3-oxazol-2-yl}-2-(3-carbamoyl-2,4-difluorophenoxy)ethyl [(6-methylpyridin-2-yl)methyl]carbamate] gave an MIC of 1 to 4 µg/mL (≈ 1.53 to 6.1 µM).
`NC(=O)c1c(F)ccc(OCc2nc(-c3ccc(Cl)cc3)c(-c3cccc(O)c3)o2)c1F` [Compound 210, 3-{[4-(4-chlorophenyl)-5-(3-hydroxyphenyl)-1,3-oxazol-2-yl]methoxy}-2,6-difluorobenzamide] gave an MIC of 4 to 16 µg/mL (≈ 8.76 to 35 µM).
`NC(=O)c1c(F)ccc(OC(CCCO)c2nc(-c3ccc(C(F)(F)F)cc3)c(Br)o2)c1F` (stereo not drawn) [Compound 46, 3-(1-{5-bromo-4-[4-(trifluoromethyl)phenyl]-1,3-oxazol-2-yl}-4-hydroxybutoxy)-2,6-difluorobenzamide] gave an MIC of 1 to 4 µg/mL (≈ 1.87 to 7.47 µM).
Work on `COc1ncc(-c2csc(C(C)Oc3ccc(F)c(C(N)=O)c3F)n2)s1` (stereo not drawn) [Compound 23, 2,6-difluoro-3-[1-(2′-methoxy-4,5′-bi-1,3-thiazol-2-yl)ethoxy]benzamide] yielded an MIC of 4 to 16 µg/mL (≈ 10.1 to 40.3 µM).
`NC(=O)c1c(F)ccc(OCCCCOc2ccc(Cl)c(C(F)(F)F)c2)c1F` [Compound 169, 3-{4-[4-chloro-3-(trifluoromethyl)phenoxy]butoxy}-2,6-difluorobenzamide] gave an MIC of less than 1.01 µg/mL.
`Cc1cc(CNC(=O)OCC(Oc2ccc(F)c(C(N)=O)c2F)c2nc(-c3ccc(C(F)(F)F)cc3)c(Br)o2)nn1C` (stereo not drawn) [Compound 88, 2-{5-bromo-4-[4-(trifluoromethyl)phenyl]-1,3-oxazol-2-yl}-2-(3-carbamoyl-2,4-difluorophenoxy)ethyl [(1,5-dimethyl-1H-pyrazol-3-yl)methyl]carbamate] was tested, and the MIC was 1 to 4 µg/mL (≈ 1.52 to 6.08 µM).
With `NC(=O)c1c(F)ccc(NCCCCOc2ccc(C(F)(F)F)cn2)c1F` [Compound 179, 2,6-difluoro-3-[(4-{[5-(trifluoromethyl)pyridin-2-yl]oxy}butyl)amino]benzamide] the MIC was 4 to 16 µg/mL (≈ 10.3 to 41.1 µM).
`NC(=O)c1c(F)ccc(OCCCCOc2ccc(C(F)(F)F)nc2)c1F` [Compound 144, 2,6-difluoro-3-(4-{[6-(trifluoromethyl)pyridin-3-yl]oxy}butoxy)benzamide] showed an MIC of 1 to 4 µg/mL (≈ 2.56 to 10.2 µM).
Work on `NC(=O)c1c(F)ccc(OCCCc2nc(-c3ccc(C(F)(F)F)cc3)cs2)c1F` [Compound 113, 2,6-difluoro-3-(3-{4-[4-(trifluoromethyl)phenyl]-1,3-thiazol-2-yl}propoxy)benzamide] yielded an MIC of 1 to 4 µg/mL (≈ 2.26 to 9.04 µM).
`CN(CCNC(=O)OCC(Oc1ccc(F)c(C(N)=O)c1F)c1nc(-c2ccc(C(F)(F)F)cc2)c(Br)o1)C(=O)OC(C)(C)C` (stereo not drawn) [Compound 56, tert-butyl [2-({[2-{5-bromo-4-[4-(trifluoromethyl)phenyl]-1,3-oxazol-2-yl}-2-(3-carbamoyl-2,4-difluorophenoxy)ethoxy]carbonyl}amino)ethyl]methyl carbamate (non-preferred name)] showed an MIC of 1 to 4 µg/mL (≈ 1.41 to 5.65 µM).
With `NC(=O)c1c(F)ccc(OCCOCCOc2ccc(C(F)(F)F)cc2)c1F` [Compound 146, 2,6-difluoro-3-(2-{2-[4-(trifluoromethyl)phenoxy]ethoxy}ethoxy) benzamide] the MIC was less than 1.01 µg/mL.
For `COc1ccc(-c2nc(C(C)Oc3ccc(F)c(C(N)=O)c3F)oc2Br)cc1` (stereo not drawn) [Compound 24, 3-{1-[5-bromo-4-(4-methoxyphenyl)-1,3-oxazol-2-yl]ethoxy}-2,6-difluorobenzamide], the MIC was less than 1.01 µg/mL.
`Cn1cc(CNC(=O)OCC(Oc2ccc(F)c(C(N)=O)c2F)c2nc(-c3ccc(C(F)(F)F)cc3)c(Br)o2)cn1` (stereo not drawn) [Compound 76, 2-{5-bromo-4-[4-(trifluoromethyl)phenyl]-1,3-oxazol-2-yl}-2-(3-carbamoyl-2,4-difluorophenoxy)ethyl [(1-methyl-1H-pyrazol-4-yl)methyl]carbamate] was tested, and the MIC was less than 1.01 µg/mL.
Work on `CC(Oc1ccc(F)c(C(N)=O)c1F)c1nc(-c2ccc(C(F)(F)F)cc2)c(Br)o1` (stereo not drawn) [Compound 29, 3-(1-{5-bromo-4-[4-(trifluoromethyl)phenyl]-1,3-oxazol-2-yl}ethoxy)-2,6-difluorobenzamide] yielded an MIC of less than 1.01 µg/mL.
For `NC(=O)c1c(F)ccc(O[C@H](CO)c2nc(-c3ccc(C(F)(F)F)cc3)c(Br)o2)c1F` (racemic) [Compound 32, 3-(1-{5-bromo-4-[4-(trifluoromethyl)phenyl]-1,3-oxazol-2-yl}-2-hydroxyethoxy)-2,6-difluorobenzamide], the MIC was less than 1.01 µg/mL.
Compound `CN(Cc1ccncc1)C(=O)OCC(Oc1ccc(F)c(C(N)=O)c1F)c1nc(-c2ccc(C(F)(F)F)cc2)c(Br)o1` (stereo not drawn) [Compound 71, 2-{5-bromo-4-[4-(trifluoromethyl)phenyl]-1,3-oxazol-2-yl}-2-(3-carbamoyl-2,4-difluorophenoxy)ethyl methyl(pyridin-4-ylmethyl)carbamate] has an MIC of 4 to 16 µg/mL (≈ 6.1 to 24.4 µM).
With `COCCN(CCCCOc1ccc(OC(F)(F)F)cc1)c1ccc(F)c(C(N)=O)c1F` [Compound 184, 2,6-difluoro-3-[(2-methoxyethyl){4-[4-(trifluoromethoxy)phenoxy]butyl}amino]benzamide] the MIC was 1 to 4 µg/mL (≈ 2.16 to 8.65 µM).
For `NC(=O)c1c(F)ccc(OC(COC(=O)NCCO)c2nc(-c3ccc(C(F)(F)F)cc3)c(Br)o2)c1F` (stereo not drawn) [Compound 59, 2-{5-bromo-4-[4-(trifluoromethyl)phenyl]-1,3-oxazol-2-yl}-2-(3-carbamoyl-2,4-difluorophenoxy)ethyl (2-hydroxyethyl)carbamate], the MIC was less than 1.01 µg/mL.
For `COc1ccc(CNC(=O)OCC(Oc2ccc(F)c(C(N)=O)c2F)c2nc(-c3ccc(C(F)(F)F)cc3)c(Br)o2)cn1` (stereo not drawn) [Compound 83, 2-{5-bromo-4-[4-(trifluoromethyl)phenyl]-1,3-oxazol-2-yl}-2-(3-carbamoyl-2,4-difluorophenoxy)ethyl [(6-methoxypyridin-3-yl)methyl]carbamate], the MIC was less than 1.01 µg/mL.
With `CC/C=C\CCCCCOc1ccc(F)c(C(N)=O)c1F` [Compound 6, 2,6-difluoro-3-[(6Z)-non-6-en-1-yloxy]benzamide] the MIC was less than 1.01 µg/mL.
`CCCCCC/C=C/COc1ccc(F)c(C(N)=O)c1F` [Compound 3, 2,6-difluoro-3-[(2E)-non-2-en-1-yloxy]benzamide] gave an MIC of less than 1.01 µg/mL.
`NC(=O)c1c(F)ccc(OC(COC(=O)N2CCOCC2)c2nc(-c3ccc(C(F)(F)F)cc3)c(Br)o2)c1F` (stereo not drawn) [Compound 58, 2-{5-bromo-4-[4-(trifluoromethyl)phenyl]-1,3-oxazol-2-yl}-2-(3-carbamoyl-2,4-difluorophenoxy)ethyl morpholine-4-carboxylate] showed an MIC of 4 to 16 µg/mL (≈ 6.45 to 25.8 µM).
With `NC(=O)c1c(F)ccc(OCc2nc(-c3ccc(C(F)(F)F)cc3)c(Br)s2)c1F` [Compound 211, 3-({5-bromo-4-[4-(trifluoromethyl)phenyl]-1,3-thiazol-2-yl}methoxy)-2,6-difluorobenzamide] the MIC was 1 to 4 µg/mL (≈ 2.03 to 8.11 µM).
Compound `CCOC(=O)CN(CCCCOc1ccc(OC(F)(F)F)cc1)c1ccc(F)c(C(N)=O)c1F` [Compound 186, ethyl N-(3-carbamoyl-2,4-difluorophenyl)-N-{4-[4-(trifluoromethoxy)phenoxy]butyl}glycinate] has an MIC of 1 to 4 µg/mL (≈ 2.04 to 8.16 µM).
`NC(=O)c1c(F)ccc(OC(CO)c2nc(-c3ccc(F)cc3F)c(Br)o2)c1F` (stereo not drawn) [Compound 99, 3-{1-[5-bromo-4-(2,4-difluorophenyl)-1,3-oxazol-2-yl]-2-hydroxyethoxy}-2,6-difluorobenzamide] showed an MIC of less than 1.01 µg/mL.
With `NC(=O)c1c(F)ccc(O[C@H](COC(=O)CCC(=O)O)c2nc(-c3ccc(C(F)(F)F)cc3)c(Br)o2)c1F` [Compound 70, 4-[(2R)-2-{5-bromo-4-[4-(trifluoromethyl)phenyl]-1,3-oxazol-2-yl}-2-(3-carbamoyl-2,4-difluorophenoxy)ethoxy]-4-oxobutanoic acid] the MIC was less than 1.01 µg/mL.
